Tests used:
fasting male rabbits = assay: Hypoglycemic action after intravenous administration; format: in vivo, rabbit; details: i.v.; for Change in blood glucose from starting value: 6.25 microliters/kg of 2.2 mg in 1.5 ml 0.9% NaCl, 5 fasting male rabbits
Procedure: 2.2 mg of anhydrous (A-1)Thr--(AO)Arg--(B30)Des--Thr human insulin were taken up in 1.5 ml of 0.9% strength NaCl solution. 2.2 mg of human insulin, also in 1.5 ml of physiological saline solution, were used as comparison and standard substance. 6.25 microliters of sample solution/kg of live weight were in each case intravenously administered to 5 fasting male rabbits having mean weights of 3.1 kg. 6.25 microliters of standard solution per kg were likewise administered i.v. to 5 other animals. After various times, blood samples were taken and examined for blood sugar concentrations. Within the limits of error, the following measurement results were found: […]

[1] = Subcutaneous administration of a crystal suspension; format: in vivo
[2] = measured by isoelectric focusing; prior art (European Patent 132,769 and 132,770); cited from earlier work

Substance	Change in blood glucose from starting value (fasting male rabbits; 1/2 h)	Change in blood glucose from starting value (fasting male rabbits; 1 h)	Change in blood glucose from starting value (fasting male rabbits; 2 h)	Change in blood glucose from starting value (fasting male rabbits; 3 h)	hypoglycemic action (fasting male rabbits; rabbits, compared with human insulin)	action profile [1]	Change in blood glucose from starting value (fasting male rabbits; 4 h)	isoelectric point [2]
(A-1)Thr--(AO)Arg--(B30)Des--Thr human insulin [(A-1)Thr-(AO)-Arg-(B30)Des-Thr insulin]	-31%	-31%	-20%	-3%	of the same order of magnitude as that of the (unmodified) human insulin	acts in a sustained manner	–	–
human insulin	-28%	-27%	-18%	-11%	–	–	-6%	–
native insulin: unmodified native insulin	–	–	–	–	–	–	–	5.4
proinsulin	–	–	–	–	–	–	–	5.4
